Values after ≈ are worked out from the molar mass of the structure shown. Read-outs that look alike come from different tables or passages of the source.
Legend:
solubility = type: physicochemical; details: water, before conjugation
[1] = storage stability of DMCHSA solution (UV and FTIR spectra); type: physicochemical
Description: The liquid stability of the product was analysed at 24 h interval for 48 h or 72 h. The UV spectra recorded at different storage period are shown
FTIR spectra are shown to substantiate the chemical degradation after 48 h of storage of DMCHSA solution.
The lyophilized samples were used for respective periods as prepared for liquid stability, were lyophilized and recorded FTIR spectrum.
Thus, liquid stability of DMCHSA stored for […] is evident.

[2] = tested on: Fibroblast cell line (L929); experiment: MTT cytotoxicity assay, DMCHSA versus free DMC; type: cell-based, mouse; details: similar molar concentrations, 24 h-48 h
Description: Cancer cell lines (A549,MCF-7), Fibroblast cell line (L929), and primary cells (ECs and CCs) were cultured in 96-well plates containing 100 µl medium, kept this plate in CO2 incubator (5% CO2) at 37° C. for 24 h. DMCHSA solution was freshly prepared by dissolving the lyophilized conjugate in DMEM F12 medium and added (0.05 mg/ml, 0.1 mg/ml, 0.2 mg/ml, 0.4 mg/ml) in 96 well plate for 24 h. […] In all cultures standard MTT assay quantified viable cells after treating with DMCHSA/free DMC. Briefly, commercial MTT (0.5 mg/ml) reagent was dissolved in medium. This solution was filtered through a 0.22 µm filter and stored at 2 - 8° C. After removal of 100 µl medium, MTT dye solution was added and the plates were incubated at 37° C. for 4 h in a humidified 5% CO2 incubator, followed by 100 µl of DMSO added to each well, and mixed thoroughly to dissolve the dye crystals.
The absorbance was measured using an ELISA plate reader at 570 nm. High optical density readings corresponded to a high intensity of dye colour. The fractional absorbance was calculated by the formula: % Cell survival/PR = Mean absorbance in test × 100 Mean absorbance in control

[3] = cited from earlier work
[4] = cited from earlier work; remark: listed apart in the source

COc1cc(/C=C/C(=O)CC(=O)/C=C/c2ccc(O)c(OC)c2)ccc1O [DMC, (1E,6E)-1,7-bis(4-hydroxy-3-methoxyphenyl)hepta-1,6-dienne-3,5-dione]
solubility (solubility): 20 µM (≈ 7.37 µg/mL)
UV-Vis spectral stability [1]: degrading free curcumin in 2h
cytotoxicity on fibroblasts, DMCHSA compared with free DMC [2]: less cytotoxic
solubility in acetone, DMSO and ethyl ether [3]: very soluble
solubility in ethyl alcohol, glacial acetic acid and propylene glycol [3]: soluble
solubility in water, petroleum ether and benzene [3]: poorly soluble
half-life of DMC ([4]; in the presence of protein): 1 to 2 h
half-life of DMC ([4]; physiological pH, without protein): a few minutes
